Measured values from the supplement of paper PMC11451515.

System: NOMO1
Test: cell viability relative to DMSO control; higher = less cytotoxic
Settings: 48 h
Procedure, shortened: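 NOMO1, SEM and P12-Ichikawa leukemia cells spent at least four passages adapting to each medium before use. They were seeded at 500 cells/well (NOMO1, SEM) or 1000 cells/well (P12-Ichikawa) in 5 μl in 1536-well plates and pin-dosed with library compounds in DMSO at 11 threefold steps from 47 μM down to 0.79 nM. After 48 h at 37°C, CellTiter-Glo One luminescence was read. Viability is reported as a percentage of the DMSO wells on each plate, with cell-free wells as background.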

[1] = HPLM + 10% dialyzed FBS, 0.000781 µM
[2] = HPLM + 10% dialyzed FBS, 0.00234 µM
[3] = HPLM + 10% dialyzed FBS, 0.00702 µM
[4] = HPLM + 10% dialyzed FBS, 0.0211 µM
[5] = HPLM + 10% dialyzed FBS, 0.0632 µM
[6] = HPLM + 10% dialyzed FBS, 0.19 µM
[7] = HPLM + 10% dialyzed FBS, 0.569 µM
[8] = HPLM + 10% dialyzed FBS, 1.71 µM
[9] = HPLM + 10% dialyzed FBS, 5.12 µM
[10] = HPLM + 10% dialyzed FBS, 15.4 µM
[11] = HPLM + 10% dialyzed FBS, 46.1 µM
[12] = RPMI 5 mM glucose + 10% FBS, 0.000781 µM
[13] = RPMI 5 mM glucose + 10% FBS, 0.00234 µM
[14] = RPMI 5 mM glucose + 10% FBS, 0.00702 µM
[15] = RPMI 5 mM glucose + 10% FBS, 0.0211 µM
[16] = RPMI 5 mM glucose + 10% FBS, 0.0632 µM
[17] = RPMI 5 mM glucose + 10% FBS, 0.19 µM
[18] = RPMI 5 mM glucose + 10% FBS, 0.569 µM
[19] = RPMI 5 mM glucose + 10% FBS, 1.71 µM
[20] = RPMI 5 mM glucose + 10% FBS, 5.12 µM
[21] = RPMI 5 mM glucose + 10% FBS, 15.4 µM
[22] = RPMI 5 mM glucose + 10% FBS, 46.1 µM
[23] = RPMI 5 mM glucose + 10% dialyzed FBS, 0.000781 µM
[24] = RPMI 5 mM glucose + 10% dialyzed FBS, 0.00234 µM
[25] = RPMI 5 mM glucose + 10% dialyzed FBS, 0.00702 µM
[26] = RPMI 5 mM glucose + 10% dialyzed FBS, 0.0211 µM
[27] = RPMI 5 mM glucose + 10% dialyzed FBS, 0.0632 µM
[28] = RPMI 5 mM glucose + 10% dialyzed FBS, 0.19 µM
[29] = RPMI 5 mM glucose + 10% dialyzed FBS, 0.569 µM
[30] = RPMI 5 mM glucose + 10% dialyzed FBS, 1.71 µM
[31] = RPMI 5 mM glucose + 10% dialyzed FBS, 5.12 µM
[32] = RPMI 5 mM glucose + 10% dialyzed FBS, 15.4 µM
[33] = RPMI 5 mM glucose + 10% dialyzed FBS, 46.1 µM

| SMILES | cell viability [1] [%] | cell viability [2] [%] | cell viability [3] [%] | cell viability [4] [%] | cell viability [5] [%] | cell viability [6] [%] | cell viability [7] [%] | cell viability [8] [%] | cell viability [9] [%] | cell viability [10] [%] | cell viability [11] [%] | cell viability [12] [%] | cell viability [13] [%] | cell viability [14] [%] | cell viability [15] [%] | cell viability [16] [%] | cell viability [17] [%] | cell viability [18] [%] | cell viability [19] [%] | cell viability [20] [%] | cell viability [21] [%] | cell viability [22] [%] | cell viability [23] [%] | cell viability [24] [%] | cell viability [25] [%] | cell viability [26] [%] | cell viability [27] [%] | cell viability [28] [%] | cell viability [29] [%] | cell viability [30] [%] | cell viability [31] [%] | cell viability [32] [%] | cell viability [33] [%] |
| --- | --- | --- | --- | --- | --- | --- | --- | --- | --- | --- | --- | --- | --- | --- | --- | --- | --- | --- | --- | --- | --- | --- | --- | --- | --- | --- | --- | --- | --- | --- | --- | --- | --- |
| CC1=C(C=CC=C1)N2\C(=N/C3=C(C(=CC=C3)C)C2=O)C[N]4N=CC5=C4N=CN=C5N | 114 | 116 | 147 | 133 | 148 | 147 | 49.6 | 44.3 | 40 | 38.5 | 35.2 | 122 | 126 | 121 | 143 | 125 | 129 | 33.4 | 26 | 26.2 | 22.9 | 22.7 |  |  |  |  |  |  |  |  |  |  |  |
| COc1cc(Nc2ncc(F)c(Nc3ccc4c(n3)NC(=O)C(C)(C)O4)n2)cc(OC)c1OC | 93.8 | 105 | 119 | 127 | 139 | 138 | 120 | 106 | 53.3 | 11.4 | 6.39 | 104 | 111 | 118 | 118 | 125 | 126 | 128 | 106 | 73.9 | 13.4 | 7.45 | 109 | 99.7 | 107 | 106 | 105 | 116 | 128 | 103 | 82.7 | 23.9 | 6.81 |
| CN1CCC(CC1)COC2=CN=C(N=C2)C3=CC(=CC=C3)CN4/N=C(\C=C/C4=O)C5=CC(=CC=C5)C#N | 105 | 111 | 103 | 118 | 119 | 127 | 111 | 111 | 123 | 120 | 101 | 106 | 110 | 103 | 107 | 118 | 119 | 108 | 123 | 113 | 116 | 114 | 88 | 111 | 103 | 109 | 109 | 115 | 102 | 120 | 118 | 100 | 114 |
| CC(C)Oc1cc(Nc2nc(N[C@@H](C)c3ccc(F)cn3)ncc2Cl)n[nH]1 | 104 | 113 | 120 | 114 | 99 | 96.8 | 127 | 94.1 | 101 | 108 | 92.4 | 107 | 100 | 111 | 110 | 104 | 104 | 116 | 53.7 | 60.4 | 68 | 72.6 | 101 | 109 | 115 | 100 | 134 | 110 | 110 | 61.6 | 57.6 | 68.9 | 85.9 |
| CC(C)C[C@H](NC(=O)[C@@H](NC(=O)c1cccc(-c2ccccc2)n1)[C@@H](C)O)B(O)O |  |  |  |  |  |  |  |  |  |  |  | 94.7 | 111 | 115 | 128 | 66.2 | 23.5 | 8.87 | 10.1 | 7.67 | 5.17 | 3.38 | 104 | 125 | 126 | 131 | 86.9 | 39.9 | 10.7 | 8.94 | 8.79 | 5.46 | 3.79 |
| CCN(CC)C(=S)SSC(=S)N(CC)CC | 97.9 | 112 | 135 | 130 | 131 | 121 | 147 | 132 | 5.58 | 46.8 | 2.75 | 104 | 112 | 119 | 120 | 129 | 110 | 127 | 127 | 4.7 | 12.4 | 3.34 | 114 | 120 | 131 | 122 | 123 | 128 | 131 | 120 | 6.51 | 5.46 | 2.56 |
| CO[C@H]1C[C@@H]2CC[C@@H](C)[C@@](O)(O2)C(=O)C(=O)N2CCCC[C@H]2C(=O)O[C@H]([C@H](C)C[C@@H]2CC[C@@H](OC(=O)C(C)(CO)CO)[C@H](OC)C2)CC(=O)[C@H](C)/C=C(\C)[C@@H](O)[C@@H](OC)C(=O)[C@H](C)C[C@H](C)/C=C/C=C/C=C/1C | 91.2 | 113 | 105 | 98.5 | 93.4 | 102 | 98.6 | 92.8 | 93.9 | 82.1 | 64.7 | 108 | 108 | 114 | 117 | 98.3 | 113 | 110 | 110 | 77 | 74.5 | 60.3 | 96.1 | 115 | 106 | 103 | 108 | 101 | 101 | 108 | 93.2 | 71.6 | 64.5 |
| CC(C)(C)c1cc(C=C(C#N)C#N)cc(Br)c1O | 86 | 114 | 124 | 112 | 112 | 122 | 122 | 113 | 113 | 103 | 94.9 | 89.9 | 115 | 116 | 126 | 103 | 106 | 121 | 132 | 107 | 109 | 100 | 84.5 | 101 | 105 | 103 | 105 | 108 | 125 | 115 | 116 | 116 | 103 |
| CC(=O)N1CCN(c2ccc(OCc3nn(C)c(C)c3-c3cccc4c(CCCOc5cccc6ccccc56)c(C(=O)O)n(Cc5cccnc5)c34)cc2)CC1 | 107 | 130 | 119 | 117 | 138 | 128 | 126 | 85.2 | 32 | 23.9 | 22.7 | 110 | 125 | 120 | 124 | 130 | 129 | 127 | 67 | 22.8 | 19.6 | 16 | 118 | 125 | 130 | 131 | 136 | 139 | 129 | 123 | 24.9 | 19.5 | 21.2 |
